Source: patent US9315482B2, “Derivatives useful as antiviral agents” (priority 2010, dated 2016)
Where two headings read alike, the source gives them in different places.

Legend:
[1] = test system: measles virus (MV); test: Inhibition of measles virus replication in HEK-293T cells, recombinant measles virus expressing luciferase (MV-Luc); details: for in vitro replication of the measles virus (MV) (luciferase activity) / in vitro replication of measles virus (MV) (luciferase activity): MV-Luc; for in vitro replication of measles virus (MV) (luciferase activity): Example 37, HEK-293T cells, FIG. 11B; for in vitro replication of measles virus (luciferase activity): Example 32, HEK-293T cells, 1 M.O.I., 20, 10, 5 μg/ml, FIG. 6; for in vitro replication of measles virus (luciferase activity) / in vitro replication of measles virus expressing luciferase: 48 h; for in vitro replication of measles virus expressing luciferase: Example 33, HEK-293T cells, FIG. 7
[2] = Metabolic stability over human liver microsomes; format: in vitro ADME; details: human liver microsomes 0.5 mg/mL, 1 mM NADPH, 2.5 μM compound, 37 °C
Protocol: The metabolic stability of compounds DD771 and GAC50 has been measured over human liver microsomes
Incubation (n=2) • A solution comprising each compound is prepared at a concentration of 1 mM in DMSO. • Said solution is diluted 1/100 in a phosphate buffer containing 0.5 mg/mL of human liver microsomes, 1 mM NADPH and 5 mM MgCl2.
The final concentration of each compound in the assay is 2.5 μM (0.25% de DMSO). • After homogenization (30 s), 50 μL are taken and mixed to 50 μL acetonitrile in order to precipitate the proteins present in the medium and to solubilise the compound. • The mixture is vortexed during 3 min then sonicated during 3 min and finally centrifuged during 10 min at 15 000 g and 4° C. • The same treatment is done at times 15, 30, 45 and 60 minutes. • The supernatants are injected and analysed by LC-MS/MS following standard method. • In parallel, incubation is carried out and in duplicate by substituting the co-factor NADPH by an equivalent buffer volume. • A sample is taken at t=60 min only.
Analyse LC-MS/MS: • All the samples are analysed by UHPLC coupled to a triple quadruple Shimadzu LC-MS 3080.
Calculations: • Half life: […] • Intrinsec clearance: CLint=V×ln2/t1/2
k: disappearance rate constant (min^−1)
V=incubation volume/protein mass (μL/mg)

[3] = test system: HEK-293T cells
[4] = test system: RSV A2; test: Inhibition of human respiratory syncytial virus in MRC5 cells, flow cytometry (RSV A2); format: cell-based; details: M.O.I of 1, 20, 10 μg/ml, 48 h, FIG. 4
Protocol: (§1) After 24 h, cell culture medium was removed, and cells were incubated for at 37° C. in the presence RSV A2 or RSV B1 at a M.O.I of 1. […] After 48 h, cells were harvested, treated with Cytofix/Cytoperm fixation/permeabilization solution (Becton-Dickinson), and stained with anti-H antibodies (ab20391, Abeam) to detect the virus glycoprotein. The percentage of infected cells was determined by flow cytometry analysis. Interferon beta (IFN-β) was used as a reference.

[5] = test system: dengue virus (serotype 4); test: Inhibition of dengue virus replication in HEK-293T cells, glycoprotein immunostaining; format: cell-based; details: 0.1 M.O.I., 5, 10, 20 μg/ml, 72 h, FIG. 2
Excerpt: Culture medium was removed, and cells were fixed in 90% acetone. Finally, infected cells were stained for dengue virus glycoprotein expression using a 1/1000 dilution of a specific antibody (clone 1H10-6; Millipore) in PBS+5% goat serum.

[6] = test system: RNA viruses; test: Antiviral activity against nine RNA viruses (summary); details: 2.5 to 20 μg/ml
[7] = test system: ISRE-luciferase construct; test: Stimulation of the ISRE-luciferase construct; format: cell-based; details: selection screen
[8] = test system: coxsackievirus B3; test: Inhibition of coxsackievirus B3 in HEK-293T cells, virus titers by TCID50; format: cell-based; details: 0.1 M.O.I., 10 μg/ml, 24 h, FIG. 5
Protocol: Finally, supernatants were harvested, and virus titers were determined by TCID50 (Tissue Culture Infecting Dose) on vera cells.

[9] = test system: West-Nile virus (WNV); test: Inhibition of West-Nile virus (WNV) in HEK-293T cells, glycoprotein immunostaining; details: M.O.I.=1, compounds at 5 μg/ml, FIG. 1
[10] = test system: herpes simplex virus 1 (HSV1); test: Antiviral activity against herpes simplex virus 1; format: cell-based; details: DNA virus
[11] = test system: RSV B1; test: Inhibition of human respiratory syncytial virus in MRC5 cells, flow cytometry (RSV B1); format: cell-based; details: M.O.I of 1, 20, 10 μg/ml, 48 h, FIG. 4
Protocol: as §1

[12] = test system: herpes simplex virus 2 (HSV2); test: Antiviral activity against herpes simplex virus 2; format: cell-based; details: DNA virus
[13] = test system: human parainfluenza virus type 3 (hPIV3); test: Inhibition of human parainfluenza virus type 3 in HEK-293T cells, glycoprotein immunostaining; format: cell-based; details: 1 M.O.I., 2.5, 5, 10, 20 μg/ml, 48 h, FIG. 3
Excerpt: Culture medium was removed, and cells were fixed in 90% acetone. Infected cells were stained with a FITC-conjugated monoclonal antibody (17-038; Argene) to detect the virus glycoprotein (green fluorescence). Cells were counterstained with Evans blue (red fluorescence).

[14] = test system: HEK-293T cells; test: Cellular toxicity in HEK-293T cells (intracellular ATP, CellTiter-Glo); details: for cellular toxicity (intracellular ATP, CellTiter-Glo): HEK-293T cells, FIG. 12C
[15] = test system: human coronavirus 229E (229E); test: Inhibition of human coronavirus 229E in MRC5 cells, spike glycoprotein immunostaining; details: M.O.I.=0.01, compounds at 20 μg/ml, FIG. 1
[16] = Example 36, HEK-293T cells, 24 hours, FIG. 10
[17] = Example 34, HEK-293T cells, 48 hours, FIG. 8

Molecule: CC1(C)CC(=O)c2c(-c3cccc(Cl)c3)coc2C1
- melting point: 104 to 105 °C

Molecule: COc1ccc(Cl)cc1-c1coc2c1C(=O)CCC2
- melting point: 136 to 137 °C

Molecule: COc1ccc(Cl)cc1C1C2=C(CCCC2=O)OC1[N+](=O)[O-] (centres unmarked)
- melting point: 171 to 172 °C

Molecule: O=C1CCCc2occ(-c3cccc(Br)c3)c21
- melting point: 106 to 107 °C

Molecule: O=C1CCCc2occ(-c3cccc(F)c3)c21
- melting point: 65 to 66 °C

Molecule: O=C1CCCc2occ(-c3ccc(Cl)cc3)c21
- melting point: 104 to 105 °C

Molecule: O=C1CCCc2occ(-c3ccccc3Cl)c21
- melting point: 147 to 148 °C

Molecule: O=C1CCCC2=C1C(c1ccccc1Cl)C([N+](=O)[O-])O2 (centres unmarked)
- melting point: 162 to 163 °C

Molecule: COc1cccc(-c2coc3c2C(=O)CCC3)c1
- melting point: 79 to 80 °C

Molecule: O=C1CCCc2occ(-c3cc(Cl)cc(Cl)c3)c21
- melting point: 105 to 106 °C

Molecule: O=C1CCCc2occ(-c3cccc([N+](=O)[O-])c3)c21
- melting point: 94 to 95 °C

Molecule: CC1CC(=O)c2c(-c3cccc(Cl)c3)coc2C1 (centres unmarked)
- melting point: 121 to 122 °C

Molecule: ON=C1CCCc2occ(-c3cccc(Cl)c3)c21
- melting point: 157 to 158 °C

Molecule: COc1cc(-c2coc3c2C(=O)CCC3)cc(OC)c1OC
- melting point: 140 to 141 °C

Molecule: O=C1CCCc2occ(-c3ccc(Cl)c(Cl)c3)c21
- melting point: 122 to 123 °C

Molecule: CC(=O)C1=C(C)OC([N+](=O)[O-])C1c1cccc(Cl)c1 (centres unmarked)
- melting point: 84 to 85 °C

Molecule: 3-(1H-5-chloroindol-3-yl)-2-nitro-2,3-dihydrofuro[3,2-c]chromen-4-one [DD771]
- in vitro replication of the measles virus (MV) (luciferase activity) [1, 16]: blocked
- in vitro replication of measles virus (MV) (luciferase activity) ([1]; 24 hours): blocked
- Half life [2]: No significative metabolism
- Intrinsic Clearance [2]: No significative metabolism
- cellular toxicity (intracellular ATP, CellTiter-Glo) [3]: acceptable cytotoxicity

Molecule: 3-(1H-5-fluoroindol-3-yl)-2-nitro-2,3-dihydrofuro[3,2-c]chromen-4-one [DD776]
- in vitro replication of the measles virus (MV) (luciferase activity) [1, 16]: blocked

Molecule: 3-(1H-5-methylindol-3-yl)-2-nitro-2,3-dihydrofuro[3,2-c]chromen-4-one [DD778]
- in vitro replication of the measles virus (MV) (luciferase activity) [1, 16]: blocked

Molecule: O=c1oc2ccccc2c2c1C(c1c[nH]c3ccccc13)C([N+](=O)[O-])O2 (centres unmarked) [Example 123-G05, 3-(1H-Indol-3-yl)-2-nitro-2,3-dihydrofuro[3,2-c]chromen-4-one]
- in vitro replication of hRSV serotype A2 (percentage of infected cells) [4]: blocked
- in vitro replication of dengue virus (serotype 4) [5]: blocked
- cytopathic effects at concentrations blocking RNA virus replication [6]: no detectable cytopathic effects
- ability to stimulate the ISRE-luciferase construct [7]: ability to stimulate the ISRE-luciferase construct
- in vitro production of coxsackievirus B3 (virus titers by TCID50) [8]: blocked
- in vitro replication of measles virus (luciferase activity) [1]: blocked
- melting point: 248 to 250 °C (dec.)
- in vitro replication of WNV (glycoprotein expression by immunostaining) [9]: blocked
- effects against HSV1 [10]: no effects
- in vitro replication of hRSV serotype B1 (percentage of infected cells) [11]: blocked
- effects against HSV2 [12]: no effects
- cytotoxic effects on HEK-293T cells [3]: absence of cytotoxic effects
- in vitro replication of human parainfluenza virus type 3 [13]: blocked
- cellular toxicity (intracellular ATP, CellTiter-Glo) [14]: acceptable cytotoxicity
- in vitro replication of 229E (spike glycoprotein expression by immunostaining) [15]: blocked

Molecule: O=C1CCCc2occ(-c3cccc(Cl)c3)c21 [Example 129-G03, 3-(3-chlorophenyl)-6,7-dihydro-5H-benzofuran-4-one]
- in vitro replication of hRSV serotype A2 (percentage of infected cells) [4]: blocked
- in vitro replication of dengue virus (serotype 4) [5]: blocked
- cytopathic effects at concentrations blocking RNA virus replication [6]: no detectable cytopathic effects
- ability to stimulate the ISRE-luciferase construct [7]: ability to stimulate the ISRE-luciferase construct
- in vitro production of coxsackievirus B3 (virus titers by TCID50) [8]: blocked
- in vitro replication of measles virus (luciferase activity) [1]: blocked
- in vitro replication of measles virus expressing luciferase [1]: blocked
- in vitro replication of the measles virus (MV) (luciferase activity) [1, 17]: blocked
- in vitro replication of the measles virus (MV) (luciferase activity) [1, 16]: blocked
- in vitro replication of measles virus (MV) (luciferase activity) ([1]; 24 hours): blocked
- melting point: 87 to 88 °C
- in vitro replication of WNV (glycoprotein expression by immunostaining) [9]: blocked
- effects against HSV1 [10]: no effects
- in vitro replication of hRSV serotype B1 (percentage of infected cells) [11]: blocked
- effects against HSV2 [12]: no effects
- in vitro replication of human parainfluenza virus type 3 [13]: blocked
- cellular toxicity (intracellular ATP, CellTiter-Glo) [14]: acceptable cytotoxicity
- cytotoxic effects on HEK-293T cells ([14]; selection screen): absence of cytotoxic effects
- in vitro replication of 229E (spike glycoprotein expression by immunostaining) [15]: blocked

Molecule: O=C1CCCc2occ(-c3cccc(I)c3)c21 [GAC25, 3-(3-iodophenyl)-6,7-dihydro-5H-benzofuran-4-one]
- in vitro replication of measles virus expressing luciferase [1]: blocked
- in vitro replication of the measles virus (MV) (luciferase activity) [1, 17]: blocked
- melting point: 135 to 136 °C

Molecule: C=Cc1cccc(-c2coc3c2C(=O)CCC3)c1 [GAC50, 3-(3-ethenylphenyl)-6,7-dihydro-5H-benzofuran-4-one]
- in vitro replication of the measles virus (MV) (luciferase activity) [1, 17]: blocked
- in vitro replication of measles virus (MV) (luciferase activity) ([1]; 24 hours): blocked
- melting point: 88 to 89 °C
- half-life at 2.5 μM [2]: 11.3 min
- microsomal CLint at 2.5 μM ([2]; read-out: Intrinsic Clearance): 49.1 µL/min/mg
